Among the data in patent US20100311714A1, “1H-IMIDAZO[4,5-c]QUINOLINONE COMPOUNDS” (priority 2009, published 2010) are IC50 values, retold here.

Each structure is given as a SMILES string.

T1 sequence (P42338 with tags, fused parts or gaps limits assumed): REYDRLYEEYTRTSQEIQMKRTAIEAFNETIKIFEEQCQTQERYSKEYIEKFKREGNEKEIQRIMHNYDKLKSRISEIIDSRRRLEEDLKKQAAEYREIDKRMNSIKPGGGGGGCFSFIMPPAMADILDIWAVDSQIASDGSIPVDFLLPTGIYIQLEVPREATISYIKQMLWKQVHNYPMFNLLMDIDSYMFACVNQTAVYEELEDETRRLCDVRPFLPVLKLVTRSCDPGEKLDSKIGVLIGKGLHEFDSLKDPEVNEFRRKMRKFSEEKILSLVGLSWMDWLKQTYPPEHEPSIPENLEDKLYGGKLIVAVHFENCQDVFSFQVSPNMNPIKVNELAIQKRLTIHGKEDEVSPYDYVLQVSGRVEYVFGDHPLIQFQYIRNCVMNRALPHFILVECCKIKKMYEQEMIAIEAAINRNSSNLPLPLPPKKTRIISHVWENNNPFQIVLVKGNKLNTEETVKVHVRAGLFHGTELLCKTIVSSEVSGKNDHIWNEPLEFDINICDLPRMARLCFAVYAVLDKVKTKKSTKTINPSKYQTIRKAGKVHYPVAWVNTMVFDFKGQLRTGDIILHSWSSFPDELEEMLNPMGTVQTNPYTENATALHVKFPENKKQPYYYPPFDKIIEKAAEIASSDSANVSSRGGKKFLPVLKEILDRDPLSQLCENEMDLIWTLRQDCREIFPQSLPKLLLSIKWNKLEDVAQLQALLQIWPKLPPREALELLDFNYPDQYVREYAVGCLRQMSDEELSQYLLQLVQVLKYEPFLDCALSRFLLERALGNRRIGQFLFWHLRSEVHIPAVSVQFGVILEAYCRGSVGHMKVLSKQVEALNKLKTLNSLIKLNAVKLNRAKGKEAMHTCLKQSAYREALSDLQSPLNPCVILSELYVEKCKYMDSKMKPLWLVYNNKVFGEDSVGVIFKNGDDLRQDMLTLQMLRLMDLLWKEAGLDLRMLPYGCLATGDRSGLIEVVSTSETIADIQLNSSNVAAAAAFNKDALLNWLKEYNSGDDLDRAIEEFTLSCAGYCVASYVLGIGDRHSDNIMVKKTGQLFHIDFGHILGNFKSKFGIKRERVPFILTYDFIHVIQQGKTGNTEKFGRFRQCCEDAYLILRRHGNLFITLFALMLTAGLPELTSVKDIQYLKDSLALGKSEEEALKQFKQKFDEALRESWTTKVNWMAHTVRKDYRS

The assay has as its target T1, PI3K beta (Homo sapiens, UniProt P42338).
T1 construct: for the full-length p110-b subunit are generated and fused by overlapping PCR; His tag (C); made in house; host or cells: baculovirus BV949; Tn5 (Trichoplusia ni) or TiniPro insect cells
In words: PI3K beta kinase assay (Kinase-Glo luminescence). The assay is classed as biochemical. The note with it: read-out: EPK_PI3Kbeta/IC50. The gist of the method:
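PI3Kβ construct BV949 (p85 iSH2–p110β full-length, C-His), 25 nM, reacted with 1 μM ATP and 10 μg/mL phosphatidylinositol in Tris pH 7.5, MgCl2, NaCl, CHAPS, DTT buffer, 60 min at room temperature. Remaining ATP by Kinase-Glo luminescence; IC50 from 4-parameter logistic fit of 8 concentrations.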
As to `CNc1ncc(-c2ccc3ncc4c(c3c2)n(-c2ccc(N3CC(O)C3)nc2C)c(=O)n4C)cc1C(F)(F)F` [Example 29.4, 1-[6-(3-Hydroxy-azetidin-1-yl)-2-methyl-pyridin-3-yl]-3-methyl-8-(6-methylamino-5-trifluoromethyl-pyridin-3-yl)-1,3-dihydro-imidazo[4,5-c]quinolin-2-one], the IC50 came out at 69 nM.
Regarding `COc1cc(-c2ccc3ncc4c(c3c2)n(-c2ccc(N3CC(O)C3)nc2C)c(=O)n4C)cnc1CO` [Example 29.5, 1-[6-(3-Hydroxy-azetidin-1-yl)-2-methyl-pyridin-3-yl]-8-(6-hydroxymethyl-5-methoxy-pyridin-3-yl)-3-methyl-1,3-dihydro-imidazo[4,5-c]quinolin-2-one], the IC50 worked out at 277 nM.
With `COc1ncc(-c2ccc3ncc4c(c3c2)n(-c2ccc(N3CC(O)C3)nc2C)c(=O)n4C)c(OC)n1` [Example 29.6, 8-(2,4-Dimethoxy-pyrimidin-5-yl)-1-[6-(3-hydroxy-azetidin-1-yl)-2-methyl-pyridin-3-yl]-3-methyl-1,3-dihydro-imidazo[4,5-c]quinolin-2-one], the IC50 turned out to be 59 nM.
In the case of `CNc1ncc(-c2ccc3ncc4c(c3c2)n(-c2ccc(C(C)(C)O)nc2C)c(=O)n4C)cc1F` [Example 31.1, 8-(5-Fluoro-6-methylamino-pyridin-3-yl)-1-[6-(1-hydroxy-1-methyl-ethyl)-2-methyl-pyridin-3-yl]-3-methyl-1,3-dihydro-imidazo[4,5-c]quinolin-2-one], the IC50 came to 217 nM.
On to `CCOc1ccc(-c2ccc3ncc4c(c3c2)n(-c2ccc(C(C)(C)O)nc2C)c(=O)n4C)cn1` [Example 31.4, 8-(6-Ethoxy-pyridin-3-yl)-1-[6-(1-hydroxy-1-methyl-ethyl)-2-methyl-pyridin-3-yl]-3-methyl-1,3-dihydro-imidazo[4,5-c]quinolin-2-one], for which the IC50 was determined as 342 nM.
As to `Cc1nc(C(C)(C)O)ccc1-n1c(=O)n(C)c2cnc3ccc(-c4cnc(N)c(C(F)(F)F)c4)cc3c21` [Example 31.5, 8-(6-Amino-5-trifluoromethyl-pyridin-3-yl)-1-[6-(1-hydroxy-1-methyl-ethyl)-2-methyl-pyridin-3-yl]-3-methyl-1,3-dihydro-imidazo[4,5-c]quinolin-2-one], the IC50 was determined as 9 nM.
On to `Cc1nc(C(C)(C)O)ccc1-n1c(=O)n(C)c2cnc3ccc(-c4cncc(C(C)(C)C#N)c4)cc3c21` [Example 31.6, 2-(5-{1-[6-(1-Hydroxy-1-methyl-ethyl)-2-methyl-pyridin-3-yl]-3-methyl-2-oxo-2,3-dihydro-1H-imidazo[4,5-c]quinolin-8-yl}-pyridin-3-yl)-2-methyl-propionitrile], for which the IC50 is 25 nM.
Regarding `CCNc1ncc(-c2ccc3ncc4c(c3c2)n(-c2ccc(C(C)(C)O)nc2C)c(=O)n4C)cn1` [Example 31.7, 8-(2-Ethylamino-pyrimidin-5-yl)-1-[6-(1-hydroxy-1-methyl-ethyl)-2-methyl-pyridin-3-yl]-3-methyl-1,3-dihydro-imidazo[4,5-c]quinolin-2-one], the IC50 amounted to 625 nM.
On to `Cc1nc(C(C)(C)O)ccc1-n1c(=O)n(C)c2cnc3ccc(-c4cncc(C5(C#N)CCC5)c4)cc3c21` [Example 31.8, 1-(5-{1-[6-(1-Hydroxy-1-methyl-ethyl)-2-methyl-pyridin-3-yl]-3-methyl-2-oxo-2,3-dihydro-1H-imidazo[4,5-c]quinolin-8-yl}-pyridin-3-yl)-cyclobutanecarbonitrile], for which the IC50 was 30 nM.
On to `CNc1ncc(-c2ccc3ncc4c(c3c2)n(-c2ccc(N3CC[C@H](O)C3)nc2C)c(=O)n4C)cn1` [Example 32.1, 1-[6-((S)-3-Hydroxy-pyrrolidin-1-yl)-2-methyl-pyridin-3-yl]-3-methyl-8-(2-methylamino-pyrimidin-5-yl)-1,3-dihydro-imidazo[4,5-c]quinolin-2-one], for which the IC50 came out at 103 nM.
On to `CNc1ncc(-c2ccc3ncc4c(c3c2)n(-c2ccc(N3CC[C@H](O)C3)nc2C)c(=O)n4C)cc1F` [Example 32.2, 8-(5-Fluoro-6-methylamino-pyridin-3-yl)-1-[6-((S)-3-hydroxy-pyrrolidin-1-yl)-2-methyl-pyridin-3-yl]-3-methyl-1,3-dihydro-imidazo[4,5-c]quinolin-2-one], for which the IC50 was determined as 1070 nM.
As for `COc1ncc(-c2ccc3ncc4c(c3c2)n(-c2ccc(N3CC[C@H](O)C3)nc2C)c(=O)n4C)c(OC)n1` [Example 32.3, 8-(2,4-Dimethoxy-pyrimidin-5-yl)-1-[6-((S)-3-hydroxy-pyrrolidin-1-yl)-2-methyl-pyridin-3-yl]-3-methyl-1,3-dihydro-imidazo[4,5-c]quinolin-2-one], the IC50 is 192 nM.
Take `CNc1ncc(-c2ccc3ncc4c(c3c2)n(-c2ccc(N3CC[C@H](O)C3)nc2C)c(=O)n4C)cc1C(F)(F)F` [Example 32.5, 1-[6-((S)-3-Hydroxy-pyrrolidin-1-yl)-2-methyl-pyridin-3-yl]-3-methyl-8-(6-methylamino-5-trifluoromethyl-pyridin-3-yl)-1,3-dihydro-imidazo[4,5-c]quinolin-2-one]: the IC50 worked out at 37 nM.
As for `Cc1nc(N2CC[C@H](O)C2)ccc1-n1c(=O)n(C)c2cnc3ccc(-c4cncc(OC(C)C)c4)cc3c21` [Example 32.8, 1-[6-((S)-3-Hydroxy-pyrrolidin-1-yl)-2-methyl-pyridin-3-yl]-8-(5-isopropoxy-pyridin-3-yl)-3-methyl-1,3-dihydro-imidazo[4,5-c]quinolin-2-one], the IC50 came to 216 nM.
Turning to `Cc1nc(C(F)(F)F)ccc1-n1c(=O)n(C)c2cnc3ccc(-c4cncc(C(C)(C)O)c4)cc3c21` [Example 33.1, 8-[5-(1-Hydroxy-1-methyl-ethyl)-pyridin-3-yl]-3-methyl-1-(2-methyl-6-trifluoromethyl-pyridin-3-yl)-1,3-dihydro-imidazo[4,5-c]quinolin-2-one], the IC50 is 69 nM.
Take `CCNc1ncc(-c2ccc3ncc4c(c3c2)n(-c2ccc(N3CC[C@@H](O)C3)nc2C)c(=O)n4C)cc1C(F)(F)F` [Example 34.2, 8-(6-Ethylamino-5-trifluoromethyl-pyridin-3-yl)-1-[6-((R)-3-hydroxy-pyrrolidin-1-yl)-2-methyl-pyridin-3-yl]-3-methyl-1,3-dihydro-imidazo[4,5-c]quinolin-2-one]: the IC50 turned out to be 134 nM.
For `CCNc1ncc(-c2ccc3ncc4c(c3c2)n(-c2ccc(N3CC[C@@H](O)C3)nc2C)c(=O)n4C)cc1COCC` [Example 34.4, 8-(5-Ethoxymethyl-6-ethylamino-pyridin-3-yl)-1-[6-((R)-3-hydroxy-pyrrolidin-1-yl)-2-methyl-pyridin-3-yl]-3-methyl-1,3-dihydro-imidazo[4,5-c]quinolin-2-one], the IC50 was 454 nM.
